Results: US20250179022A1, “COMPOUND USED AS TYK2 INHIBITOR, PREPARATION METHOD THEREFOR, AND PHARMACEUTICAL USE THEREOF” (SHANGHAI ZHIGEN PHARMACEUTICAL & TECHNOLOGY CO. LTD., priority 2022, published 2025)

Key:
Type in all cases: cell-based
[1] = system: IFN-α-induced STAT phosphorylation; test: IFN-α-induced STAT phosphorylation in human whole blood; conditions: for higher anti-inflammatory activity compared to the control BMS-986165: IFN-α-induced STAT phosphorylation in human whole blood, relative to BMS-986165; for IC50: human whole blood, 20 ng/ml IFN-α, pSTAT5 in CD3-positive cells, read-out: IC50, IFN-α inflammatory pathway (IFN-α-induced STAT phosphorylation)
From the text: The cytokine receptor attached to TYK2 mediates the signaling of type 1 interferon (IFN-α), which has been identified as the most important inflammatory factor of the autoimmune system. Human whole blood is induced with IFN-α, and TYK2 from lymphocytes in whole blood triggered STAT phosphorylation, which mediated subsequent inflammatory signaling. Therefore, TYK2 inhibitors have an inhibitory effect on IFN-α signaling, and the stronger the TYK2 inhibitory activity, the lower the level of STAT phosphorylation, and the stronger the corresponding anti-inflammatory effect.
In this experiment, the ability of the compounds to inhibit IFN-α-induced STAT phosphorylation in human whole blood were tested, and the IC50 values were calculated. The anti-inflammatory activity of the compounds was evaluated at the tissue level and evaluation of the inhibitory activity of compounds on the IFN-α inflammatory pathway based on the IC50 value.
The tested compound, powder and stored at room temperature, prepared into 10 mM stock solution with DMSO and stored at −80° C. in the refrigerator.
1× Fix/Lysis solution preparation: 5× Fix/Lysis and ddH2O were diluted according to 1:4 and preheated in 37° C. incubator, waiting for use.
Flow cytometric staining buffer preparation: 1 g of bovine serum albumin (BSA) and 1 mL of EDTA (0.5 M) solution were added to 500 mL of phosphate buffer solution (PBS) and stored at 4° C. in the refrigerator.
Compound dilution solution: 0.5 g of bovine serum albumin (BSA) was added to 500 mL of phosphate buffer solution (PBS), and stored at 4° C. in the refrigerator.
50 μg/mL IFN-alpha was diluted to 400 ng/mL with Compound Diluent and set aside.
67.5 μL of human whole blood was added to a 96-well plate using a 300 μL electric volley gun. 3.5 μL of prepared test compound was added, mixed well and placed in the cell culture incubator. After 60 min incubation, 400 ng/mL IFN-α (Biolegend 592702, final concentration 20 ng/ml) was added. The obtained was mixed well and placed in the cell culture incubator to continue incubation for 15 min.
After cytokine stimulation, 5 ul of PE-CD3 (BD 555333) antibody was added to each well, mixed and incubation was continued at 4° C. in the refrigerator. At the end, whole blood was transferred to a 96-well deep-well plate using a volley gun, pre-warmed 1× Fix/Lysis solution was added, and cells were lysed and fixed for 12 minutes at 37° C. in an incubator. After being washed, 400 μL of Perm III solution was added, vortexed and incubated on ice for 30 minutes. Cells were then stained by 100 μL of APC-pSTAT5 (1:100) antibody for 50 min at room temperature. This was followed by flow-through instrumentation. The expression of pSTAT5 was quantified by median fluorescence intensity after gating the CD3-positive signaling cluster.

[2] = biological target: T1, JAK3 (Homo sapiens, UniProt P52333, cells depend on it, form not given); test: JAK family kinase selectivity assay, Ba/F3-TEL-JAK3 cell proliferation; conditions: Ba/F3-TEL-JAK3, 72 h; read-out: Ba/F3 Cell IC50 JAK3
T1 construct: fused on or other part: N-terminal part of TEL (ETV6) as oligomerising partner; P41212 (Transcription factor ETV6)
T1 sequence (P52333 822-1111 limits assumed, change not shown): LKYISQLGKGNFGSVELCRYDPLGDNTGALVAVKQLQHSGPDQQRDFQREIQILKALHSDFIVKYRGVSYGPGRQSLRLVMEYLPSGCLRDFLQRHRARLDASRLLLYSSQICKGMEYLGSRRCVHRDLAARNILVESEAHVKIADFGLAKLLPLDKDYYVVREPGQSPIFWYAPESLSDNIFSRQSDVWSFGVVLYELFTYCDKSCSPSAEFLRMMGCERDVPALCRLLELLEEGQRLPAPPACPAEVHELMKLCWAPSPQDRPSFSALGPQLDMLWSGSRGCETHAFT
From the text: (§1) There are four kinases in the JAK family, respectively TYK2, JAK1, JAK2 and JAK3. JAK family kinase genes were introduced into the wild-type murine B lymphocytes (BaF3), and four BaF3 engineered cell lines were constructed respectively (Ba/F3-FL-TYK2-E957D, Ba/F3-TEL-JAK1, Ba/F3-TEL-JAK2, Ba/F3-TEL-JAK3). The growth and proliferation of these engineered cell lines were not dependent on IL-3, but on exogenously transferred JAK family kinases.
(§2) In this experiment, the inhibitory effects of the compounds on the proliferation of four cell types, Ba/F3-FL-TYK2-E957D, Ba/F3-TEL-JAK1, Ba/F3-TEL-JAK2, and Ba/F3-TEL-JAK3 were tested, and apoptosis was detected, and the IC50 values were calculated. The inhibitory activities of the compounds against TYK2, JAK1, JAK2, and JAK3 kinases were evaluated based on the IC50 value, thus assessing the JAK family kinase selectivity of the compounds.
(§3) The tested compounds, powder and stored at room temperature, were prepared into 10 mM stock solution with DMSO and stored at −20° C. away from light for use.
(§4) Compounds were formulated into dilute solutions which was 1000 times of the final concentration. The compound was prepared into 20-times of final concentration by diluting the compound with culture medium. 2 ul of 1000-times compound was added per well to 98 ul of culture medium.
(§5) Cells (provided by Sundia Pharmaceutical Technology (Shanghai) Co., Ltd.) were resuspended and counted using an automated cell counter. The cell suspension was diluted to the desired density based on BaF3 seeding density of 2000 cells per well. Each well was plated with 95 ul of cells and incubated at 37° C. for stable equilibrium. […]
(§6) The cell plate was equilibrated to room temperature. […] Detected with SpectraMax Paradigm.
(§7) • (1) IC50 was calculated using GraphPad Prism 5. • (2) % Inh=(Max signal-Compound signal)/(Max signal-Min signal)×100. • (3) Max signal was the positive control well with only the same volume of DMSO as the compound. • (4) Min signal was the negative control well with only the culture medium.

[3] = biological target: T2, TYK2 (Homo sapiens, UniProt P29597, E957D); test: JAK family kinase selectivity assay, Ba/F3-FL-TYK2-E957D cell proliferation; conditions: 72 h
T2 construct: host or cells: Ba/F3 (murine B lymphocytes)
T2 sequence (P29597 whole entry E957D): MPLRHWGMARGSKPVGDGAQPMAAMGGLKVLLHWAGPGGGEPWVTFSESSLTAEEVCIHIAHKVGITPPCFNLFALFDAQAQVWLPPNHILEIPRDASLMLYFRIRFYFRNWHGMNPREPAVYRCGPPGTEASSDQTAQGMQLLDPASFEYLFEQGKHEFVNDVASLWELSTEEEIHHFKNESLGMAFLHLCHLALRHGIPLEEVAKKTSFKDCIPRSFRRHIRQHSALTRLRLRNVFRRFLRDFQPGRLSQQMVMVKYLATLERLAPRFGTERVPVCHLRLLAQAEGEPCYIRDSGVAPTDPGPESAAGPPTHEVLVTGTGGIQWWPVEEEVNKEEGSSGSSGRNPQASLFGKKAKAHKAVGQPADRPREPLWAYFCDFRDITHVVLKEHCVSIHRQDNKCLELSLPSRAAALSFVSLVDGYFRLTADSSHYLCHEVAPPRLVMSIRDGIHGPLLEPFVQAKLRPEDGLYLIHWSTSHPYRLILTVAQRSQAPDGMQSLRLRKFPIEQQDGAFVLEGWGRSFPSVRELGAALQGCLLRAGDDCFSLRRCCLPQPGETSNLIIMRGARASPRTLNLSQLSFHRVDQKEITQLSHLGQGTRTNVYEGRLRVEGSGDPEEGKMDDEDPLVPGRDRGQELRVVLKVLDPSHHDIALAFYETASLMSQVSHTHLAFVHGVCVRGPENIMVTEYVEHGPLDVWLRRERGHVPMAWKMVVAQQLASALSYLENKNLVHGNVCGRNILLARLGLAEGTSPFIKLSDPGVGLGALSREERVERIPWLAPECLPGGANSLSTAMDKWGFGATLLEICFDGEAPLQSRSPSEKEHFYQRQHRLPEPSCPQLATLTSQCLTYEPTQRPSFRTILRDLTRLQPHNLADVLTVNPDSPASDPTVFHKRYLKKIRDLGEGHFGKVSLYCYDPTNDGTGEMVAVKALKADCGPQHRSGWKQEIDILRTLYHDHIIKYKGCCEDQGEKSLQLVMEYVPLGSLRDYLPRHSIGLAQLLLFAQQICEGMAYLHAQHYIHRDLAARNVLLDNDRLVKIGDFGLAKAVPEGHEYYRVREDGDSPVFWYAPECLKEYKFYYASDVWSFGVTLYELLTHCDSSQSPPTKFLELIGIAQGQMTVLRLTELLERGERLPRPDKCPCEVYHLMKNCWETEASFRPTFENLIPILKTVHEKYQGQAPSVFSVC
From the text: as §1
as §2, with “compounds. […]” for “compounds.”
Cells (provided by Sundia Pharmaceutical Technology (Shanghai) Co., Ltd.) were resuspended and counted using an automated cell counter. […]
as §6, §7

[4] = biological target: T3, JAK2 (Homo sapiens, UniProt O60674, cells depend on it, form not given); test: JAK family kinase selectivity assay, Ba/F3-TEL-JAK2 cell proliferation; conditions: Ba/F3-TEL-JAK2, 72 h; read-out: Ba/F3 Cell IC50 JAK2
T3 construct: fused on or other part: N-terminal part of TEL (ETV6) as oligomerising partner; it is the second protein of the fusion and part of the key; P41212 (Transcription factor ETV6)
T3 sequence (O60674 849-1132 limits assumed, change not shown): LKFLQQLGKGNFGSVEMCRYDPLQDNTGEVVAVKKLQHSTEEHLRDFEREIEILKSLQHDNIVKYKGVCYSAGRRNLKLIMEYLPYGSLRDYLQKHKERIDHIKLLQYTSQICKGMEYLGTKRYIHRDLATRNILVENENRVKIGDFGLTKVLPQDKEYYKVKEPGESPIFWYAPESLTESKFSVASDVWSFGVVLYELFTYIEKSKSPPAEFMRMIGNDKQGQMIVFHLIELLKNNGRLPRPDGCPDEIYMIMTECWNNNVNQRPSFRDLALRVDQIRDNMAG
From the text: as §1, §2, §3, §4, §5, §6, §7

Structure (SMILES) | higher anti-inflammatory activity compared to the control BMS-986165 [1] | IC50 [1] [nM] | GI50 [2] [nM] | IC50 [3] [nM] | GI50 [4] [nM]
[2H]C([2H])([2H])NC(=O)c1nnc(NC(=O)C2CC2)cc1Nc1nc(N)c(Cl)cc1[S@@](C)(=O)=NC [Example 28] | about 6 fold | 4 | > 1000 | 0.6 | > 1000
[2H]C([2H])([2H])NC(=O)c1nnc(NC(=O)C2CC2)cc1Nc1nc(N)c(Cl)cc1[S@](C)(=N)=O [Example 29, (R)-4-((6-amino-5-chloro-3-(S-methylsulfoximino)pyridin-2-yl)amino)-6-(cyclopropylcarboxamido)-N-(methyl-d3)pyridazine-3-carboxamide] | about 6 fold | 3.7 | > 1000 | 1.1 | > 1000
